Read-outs that look alike come from different tables or passages of the source.
Experiments:
[1] = Acute oral toxicity in the mouse (LD50, 7-day observation); type: in vivo; settings: in vivo, read-out: Mean lethal dosage (LD50)
mouse [2] = test: animal or person; settings: for ED50: Mus musculus; for Hot plate: relative therapeutic index (Th.I.) / Writhing Test: relative therapeutic index (Th.I.) / Writhing Test: mean effective dosage (ED50) / Hot plate: mean effective dosage (ED50): mouse; for Writhing Test: mean effective dosage (ED50) / Hot plate: mean effective dosage (ED50): relative to effective substance; for Writhing Test: mean effective dosage (ED50): 30 min; for Hot plate: mean effective dosage (ED50): 60 min
Experimental: The mice were kept without food during a period of 18 hours prior to the commencement of the tests. The test substances were administered orally in a methyl-cellulose-mucic (slime) by means of a probe. The observation period for the toxicity tests was 7 days. […] The pre-medication periods were 60 minutes in the first test arrangements. […] The percentage of the non-reacting animals was used to compute the ED50. […] Since the reaction times of the control group animals were log-normally distributed an analgetic effect was assumed in the treated animals if the logarithm of the reaction time of an animal was above the mean value range plus twice the standard deviation of the control group animals.

rat [3] = test: animal or person; type: in vivo
Experimental: According to Table II and with reference to the method described by A. HERZ (Naunyn-Schmiedeberg's Arch. Pharmakol., 242, 414, 1962) with rats by electrical stimulation of the root of the tail by means of continuously increasing the current a threshold of pain was determined which threshold was characterized in that the animals commenced to squeak in synchronism with the stimulation. When maintaining the selected test conditions these threshold values indicated as percent variations against the initial values prior to the treatment remained practically constant over a period of several hours in a test with control animals. Since these values are furthermore also normally distributed it is possible to quantitatively determine analgetic effects by determining the number of animals whose threshold values exceed during a test run the range defined by the mean value plus twice the standard deviation.
To determine the mean effective dosage ED50) determinations of the threshold of pain were made in 30 minute intervals with groups of 12 female rats each, each rat having a body weight from 160 to 360 grams, and these determinations were made prior to and after the treatment with at least 3 doses of the test substances which were administered orally in a 2 % methyl-cellulose-mucic by means of a probe. […] In this manner, not only the intensity but also the duration of the effect were taken into consideration when determining the ED50 since the analgesia must be sustained for at least 90 minutes.

[4] = Overall analgetic effect and compatability [sic]; settings: in vivo
rat [5] = type: in vivo
[6] = Acute oral toxicity in the rat (LD50); settings: in vivo
mouse [7] = test: Acute oral toxicity in the mouse (LD50, 7-day observation); type: in vivo; settings: Table I, relative to effective substance, 10080 min
[8] = Table I, relative to effective substance
[9] = po, 0.5 h, read-out: Writhing Test: mean effective dosage (ED50)
[10] = po, 1 h, read-out: Hot plate: mean effective dosage (ED50)
[11] = Table I, oral, LD10/ED90, relative to aminophenazone = 1,00
[12] = po, Table II, rat, p.o., relative to effective substance, read-out: Mean effective dosage (ED50), analgetic effect on rats
[13] = Table IV, rat, oral, read-out: Mean effective dosage (ED50), electrical stimulation of root of the tail (HERZ)
[14] = Table IV, oral, LD10/ED90, relative to aminophenazone = 1.00

Row | Compound | LD50 at 168 h [1, 8] [mg/kg] | ED50 (mouse [2]; [9]) [mg/kg] | ED50 (mouse [2]; [10]) [mg/kg] | Hot plate: relative therapeutic index (Th.I.) (mouse [2]; [11]) | Writhing Test: relative therapeutic index (Th.I.) (mouse [2]; [11]) | Relative effectivity, relative to aminophenazone = 1.00 (rat [3]; Table II, rat, p.o.) | ED50 (rat [3]; [12]) [mg/kg] | analgetic activity (in words) [4] | LD50 at 168 h ([1]; Table III) [mg/kg] | Hot plate: relative therapeutic index (Th.I.) (mouse [2]; in vivo, po) | Writhing Test: relative therapeutic index (Th.I.) (mouse [2]; in vivo, po) | ED50 (rat [3]; [13]) [mg/kg] | relative therapeutic index (rat [5]; [14]) | LD50 [6] [mg/kg] | Mean lethal dosage (LD50) (mouse [7]) [mg/kg body weight] | Writhing Test: mean effective dosage (ED50) (mouse [2]; Table I, oral) [mg/kg body weight] | Hot plate: mean effective dosage (ED50) (mouse [2]; Table I, oral) [mg/kg body weight] | relative therapeutic index (rat [5]; in vivo, po) | ED50 (rat [3]; Rattus norvegicus, po, read-out: Mean effective dosage (ED50), analgetic effect on rats) [mg/kg]
1 | Br.c1ccc2c(OCCN3CCOCC3)n[nH]c2c1 [3-(β-morpholino-ethoxy)-1H-indazole-hydrobromide] | 615 | 46 | 142 | 3,53 | 1,30 | 6.84 | 34 | Analgetically particularly active |  |  |  |  |  |  |  |  |  |  | 
2 | c1ccc2c(OCCN3CCOCC3)n[nH]c2c1 [3-(β-morpholino-ethoxy)-1H-indazole] |  |  |  |  |  |  |  | Analgetically particularly active |  |  |  |  |  |  |  |  |  |  | 
3 | Br.C1CCc2c(n[nH]c2OCCN2CCOCC2)C1 [3-(β-morpholino-ethoxy)-4,5,6,7-tetrahydro-2H-indazole-hydrobromide] |  |  |  |  |  |  |  | Analgetically particularly active |  |  |  |  |  |  |  |  |  |  | 
4 | C1CCc2c(n[nH]c2OCCN2CCOCC2)C1 [3-(β-morpholino-ethoxy)-4,5,6,7-tetrahydro-2H-indazole] |  | 94 | 540 |  |  |  |  |  | 1720 | 2.67 | 2.07 | 143 | 1.62 | 1600 |  |  |  |  | 
5 | c1ccc2c(OCCCN3CCOCC3)n[nH]c2c1 [3-(γ-morpholino-propoxy)-1H-indazole] |  |  |  |  |  |  |  | Analgetically particularly active |  |  |  |  |  |  |  |  |  |  | 
6 | CC(=O)Oc1ccccc1C(=O)O [acetylsalicylate] |  | 107 | 500 | 1,67 | 0,80 | 0.67 |  |  | 835 | 1.88 | 0.91 | 340 | 0.28 | 1400 | 835 | 107 | 500 |  | 
7 | Cc1c(N(C)C)c(=O)n(-c2ccccc2)n1C [aminophenazone] |  | 50 | 283 | 1,00 | 1,00 | 1.00 |  |  | 550 | 1.00 | 1.00 | 229 |  | 1350 | 550 | 50 | 283 | 1.00 | 
8 | COc1ccc2c3c1O[C@H]1[C@@H](O)C=C[C@H]4[C@@H](C2)N(C)CC[C@@]341 [codeine phosphate] | 265 | 14 | 115 | 1,49 | 1,92 | 10.50 |  |  |  |  |  |  |  |  |  |  |  |  | 22
9 | CCOc1ccc(NC(C)=O)cc1 [phenacetine] |  | 107 | 530 | 1,71 | 0,66 | 1.86 | 123 |  | 1250 | 1.93 | 0.74 |  |  |  | 1250 | 107 | 530 |  | 

Reference: patent US3981997A, “Analgesic compositions comprising 1H- or respectively 2H-indazolone-3 (β-morpholino-alkoxy) compounds” (Temmler Werke-Vereinigte Chemische Fabriken, priority 1970, dated 1976)
